From patent US9353048B2, “Compound as KCNQ potassium channel agonist, preparation method therefor and use thereof” (SHANGHAI INSTITUTE OF MATERIA MEDICA, CHINESE ACADEMY OF …, priority 2011, dated 2016) come the findings set out here.

The structures appear in SMILES notation. Counter-ions that a name gives are not always drawn. Like-named read-outs stand apart in the source and are kept apart here.

The subject of one data set is KCNQ channels. As to the kind of experiment: Whole-cell voltage-clamp electrophysiological recording in CHO cells transfected with KCNQ channels. The note with it: for I/I0: activation multiple, maximum induced current at −10 mV testing voltage after administration (10 μM) vs before, >1 activating, <1 inhibiting; for ΔV1/2: shift of V1/2 of current activation curve, negative sign = left-ward shift, CHO cells. The format is cell-based. On the procedure:
The formulation of culture fluid for Chinese hamster […] (CHO) (Culture Collection of Chinese Academy of Sciences): 50/50 DMEM/F-12 (Cellgro, Mamassas, Va.), 10% fetal bovine serum (FBS) (Gibco, Australia) and 2 mM […] (Invitrogen). […] Lipofectamine2000™ agent (Invitrogen) was used for Transfection according to the protocol thereof. […] After cotransfection with GFP (green fluorescent protein), transfected cells could be determined under a fluorescence microscopy.
Whole-cell voltage-clamp recording was performed by using Axopatch-200B amplifier (Molecular Devices, Sunnyvale, Calif.) at room temperature. Borosilicate glass capillary tubes (World Precision Instruments, Sarasota, Fla.) were drawn into electrodes. The electric resistance of the electrodes filled with an intracellular fluid is 3 to 5 MΩ. […] During the recording, an extracellular fluid was continuously perfused by using a BPS perfusion system (ALA Scientific Instruments, Westburg, N.Y.). The formulation of the extracellular fluid was as follows: 140 mM NaCl, 5 mM KCl, 2 mM CaCl2, 1.5 mM MgCl2, 10 mM HEPES and 10 mM glucose (the pH value of the extracellular fluid was adjusted to 7.4 with NaOH). […] Resistors were connected in series to compensate 60 to 80% of signal loss. At present, multivoltage scheme was generally adopted, wherein the clamp voltage was set at −100 mV. Current was induced in cells by a series of 2000 ms stimulating voltage (from −90 mV up to +50 mV, with interval of 10 mV).
In the following table, V1/2 is the voltage at which 50% of cells were activated, ΔV1/2 is amount of a left-ward shift of V1/2, negative sign (−) represents a left-ward shift of the current activation curve and positive sign (+) represents a right-ward shift of the curve. I/I0 is the activation multiple, wherein, I0 is the maximum induced current produced under stimulation of −10 mV testing voltage, I is the maximum induced current produced under stimulation of −10 mV testing voltage after administration (10 μM), I/I0>1 represents activating activity, and I/I0<1 represents inhibiting activity. N is the number of tested cells. NT represents non-tested.

For data set [1], the system named is Animal Models Induced by PTZ. Briefly: PTZ test, compounds orally administrated (gastric lavage), KM mice. The note with it: gastric lavage; formate dihydrochloride.
Protocol: Response of animals were observed immediately and recorded within a period of 1 h.
Data set [2] deals with Animal Models Induced by PTZ (Pentylenetetrazole). As to the kind of experiment: PTZ test, compounds by intraperitoneal injection, KM mice. The note with it: intraperitoneal injection, same dosage, PTZ and MES tests; formate dihydrochloride. The format is in vivo. As for the experimental part:
Compounds to be tested were administrated by intraperitoneal injection (10 mg/kg, 5 mg/kg, 2.5 mg/kg, 0.1 ml/10 g).

Data set [3] in a line: Distribution of K20.2HCl and K21.2HCl in mice's plasma and brain tissue. The format is in vivo, KM mice. The note with it: for Kp: brain, read-out: concentration of prototype drug in brain tissue relative to plasma. The text has this:
Two hours after administration, animal were fed uniformly. Specific arrangement was as following table.
Then the residual liquid was absorbed to dryness.

The subject of data set [4] is Animal Models Induced by MES. As to the kind of experiment: MES test, compounds orally administrated (gastric lavage), KM mice. The note with it: gastric lavage; formate dihydrochloride. The format is in vivo. On the procedure: One time of electrical stimulation was applied to animals through ear clip electrodes, and a convulsion characterized by a tonic hind limb extension was observed. One day before the test, animals were screened in the above procedure to record the values of MES.
1 hour later, MES was applied according to parameters set the last day, and response of animals were observed and recorded immediately.

The subject of data set [5] is Convulsion Induced by Pentylenetetrazole (PTZ). Briefly: Convulsion induced by pentylenetetrazole (PTZ), compounds by gastric lavage, C57BL/6J mice. It is filed as in vivo. The note with it: 30 mg/kg gastric lavage, PTZ-induced convulsion. On the procedure: The compounds to be tested were administrated to animals by gastric lavage (30 mg/kg); one hour later, pentylenetetrazole was administrated by subcutaneous injection (PTZ 80 mg/kg); and response of animals were observed within a period of 60 min.

Setting [6] is: K21.2HCl 5 mg/kg gastric lavage.

`C#CCN(Cc1ccc(F)cc1)c1ccc(F)c(NC(=O)OC)c1` [Compound K10, methyl 2-fluoro-5-(N-parafluorobenzyl-N-propargyl-imino)-aniline formate]: in the data set with KCNQ channels, the I/I0 was determined as 2.75 ± 0.31 and the ΔV1/2 is on record as −18.7 ± 2.6 mV.

In the data set on KCNQ channels, `C=C(C)CN(Cc1ccc(F)cc1)c1ccc(NC(=O)OC(C)C)c(NC(=O)OC(C)C)c1` [Compound K30] came in with an I/I0 of 1.57 ± 0.25.

Turning to `CCOC(=O)Nc1ccc(N(CC2=CCCCC2)Cc2ccc(F)cc2)cc1NC(=O)OCC` [Compound K38], in the data set on KCNQ channels, the I/I0 was found to be 0.16 ± 0.02. Consider `C=CCN(Cc1ccc(F)cc1)c1ccc2[nH]c(=O)[nH]c2c1` [Compound K34, 5-(N-parafluorobenzyl-N-allyl-imino)-benzimidazole-2-one], for which the I/I0 with KCNQ channels was 1.44 ± 0.16. Take `CC#CCN(Cc1ccc(F)cc1)c1ccc(NC(=O)OCC)c(NC(=O)OCC)c1` [Compound K23]: in the data set on KCNQ channels, the I/I0 amounted to 1.44 ± 0.14 and the ΔV1/2 is given as −15.34 ± 3.8 mV.

Turning to `C#CCN(Cc1ccc(F)cc1)c1ccc(NC(=O)OC)c(F)c1` [Compound K15], in the data set with KCNQ channels, the I/I0 was 2.09 ± 0.31 and the ΔV1/2 was −22.0 ± 1.5 mV. Taken in the same sequence, the figures for `CC(=O)Nc1ccc(NCc2ccc(F)cc2)cc1` [Compound K2] were 1.50 ± 0.08 and −3.0 ± 2.0 mV. For the compound `C#CCN(Cc1ccc(F)cc1)c1ccc(NC(=O)OCC)c(N)c1` [Compound K21.2HCl, ethyl 2-amino-4-(N-parafluorobenzyl-N-propargyl-imino)-aniline formate dihydrochloride], the “effect in PTZ test (in words)” value in data set [1] is given as “obviously inhibit the tonic seizures”. Moreover, the “anti-convulsive effect compared with retigabine (in words)” value in data set [2] is “superior anti-convulsive effect”. In addition, in data set [3] (setting [6]), the “exposure amount of metabolite retigabine in brain tissue relative to prototype drug” value is 4.6% and the “exposure amount of metabolite retigabine in plasma relative to prototype drug” value stood at 5.4%. In addition, in data set [3] (male, KM, mouse, oral, 5 mg/kg gastric lavage), the Kp was 2.4. Further, the Tmax in data set [3] (male, KM, mouse, plasma or brain tissue, oral, K21.2HCl 5 mg/kg gastric lavage, read-out: time to reach the maximum concentrations (Tmax) of prototype drug in plasma or brain tissue) was 15 min. In data set [4], the “effect in MES test (in words)” value is listed as “comparable effect”. In the data set with KCNQ channels, `C=C(C)CN(Cc1ccc(F)cc1)c1ccc(NC(=O)OC(C)(C)C)c(NC(=O)OC(C)(C)C)c1` [Compound K29] registered an I/I0 of 1.24 ± 0.10. Take `C#CCN(Cc1ccc(F)cc1)c1ccc(NC(=O)OC)c(NC(=O)OC)c1` [Compound K22, methyl 2-(methoxycarbonyl-imino)-4-(N-parafluorobenzyl-N-propargyl-imino)-aniline formate]: in the data set on KCNQ channels, the I/I0 is on record as 2.10 ± 0.35 and the ΔV1/2 is listed as −27.31 ± 3.9 mV. The matching figures for `C=CCN(Cc1ccc(F)cc1)c1ccc(NC(=O)OCC)cc1` [Compound K7]: 1.35 ± 0.27 and −4.7 ± 2.0 mV. The matching figures for `C#CCN(Cc1ccc(F)cc1)c1ccc(NC(=O)OCC)cc1` [Compound K8]: 1.99 ± 0.37 and −7.3 ± 2.5 mV. For `CCC#CCN(Cc1ccc(F)cc1)c1ccc(NC(=O)OCC)c(NC(=O)OCC)c1` [Compound K24], in the data set on KCNQ channels, the I/I0 is 1.2 ± 0.1 and the ΔV1/2 is −1.87 ± 2.5 mV.

`CCOC(=O)Nc1ccc(N(CCCC(C)=O)Cc2ccc(F)cc2)cc1NC(=O)OCC` [Compound K26] yielded an I/I0 with KCNQ channels of 1.25 ± 0.07.

As to `C#CCN(Cc1cccc(F)c1)c1ccc(NC(=O)OC)cc1` [Compound K12], in the data set with KCNQ channels, the I/I0 was determined as 2.33 ± 0.17 and the ΔV1/2 is on record as −21.1 ± 1.9 mV. For `C#CCN(Cc1ccc(F)c(C(F)(F)F)c1)c1ccc(F)c(NC(=O)OC)c1` [Compound K11], in data set [5], the “anti-convulsive effect (in words)” value is “comparable anti-convulsive effect”. For the same compound, in the data set on KCNQ channels, the I/I0 is on record as 2.24 ± 0.36 and the ΔV1/2 is listed as −15.7 ± 1.0 mV. With `C#CCN(c1cccc(NC(=O)OC)c1)C(C)c1ccc(F)cc1` (centres unmarked) [Compound K16], in the data set with KCNQ channels, the I/I0 was determined as 1.47 ± 0.10 and the ΔV1/2 is reported as −20.6 ± 4.5 mV. With `C#CCCOC(=O)Nc1ccc(N(CC#C)Cc2ccc(F)cc2)cc1N` [Compound K33], the ΔV1/2 in the data set with KCNQ channels is −36.8 ± 3.3 mV.

In the data set on KCNQ channels, `COC(=O)Nc1ccc(N(CC=C(C)C)Cc2ccc(F)cc2)cc1NC(=O)OC` [Compound K31] gave an I/I0 of 1.36 ± 0.13. For `C#CCN(Cc1ccc(F)c(C(F)(F)F)c1)c1ccccc1NC(=O)OC` [Compound K14], in the data set with KCNQ channels, the I/I0 worked out at 1.43 ± 0.04 and the ΔV1/2 is −14.7 ± 2.1 mV. Taken in the same sequence, the figures for `C#CCN(Cc1ccc(F)cc1)c1ccc2[nH]c(=O)[nH]c2c1` [Compound K25, 5-(N-parafluorobenzyl-N-propargyl-imino)-benzimidazole-2-one] were 1.8 ± 0.1 and −5.8 ± 1.7 mV. In the data set with KCNQ channels, `C=C(C)CN(Cc1ccc(F)cc1)c1ccc(NC(=O)OC)c(NC(=O)OC)c1` [Compound K28] yielded an I/I0 of 1.43 ± 0.05.

Take `C#CCN(Cc1ccccc1F)c1ccc(NC(=O)OC)cc1` [Compound K13]: in the data set with KCNQ channels, the I/I0 came out at 2.31 ± 0.36 and the ΔV1/2 is given as −7.6 ± 1.9 mV. The matching figures for `C=C(/C=C/CO)CN(Cc1ccc(F)cc1)c1ccc(NC(=O)OCC)c(NC(=O)OCC)c1` [Compound K32, ethyl 2-(ethoxycarbonyl-imino)-4-[N-parafluorobenzyl-N-1-(6-hydroxyl-2-alkenyl-3-hexylene)-imino]-aniline formate]: 1.76 ± 0.09 and −6.0 ± 1.5 mV. With `C=CCN(Cc1ccc(F)cc1)c1ccc(NC(=O)OCC)c(N)c1` [Compound K20, ethyl 2-amino-4-(N-parafluorobenzyl-N-allyl-imino)-aniline formate], in the data set on KCNQ channels, the I/I0 came out at 1.75 ± 0.12 and the ΔV1/2 is on record as −49.7 ± 3.4 mV. Further, in data set [3] (male, KM, mouse, oral, 20 mg/kg gastric lavage), the Kp worked out at 2.3.

Take `CCCCCOC(=O)Nc1ccc(N(Cc2ccc(F)cc2)C(=O)OCCCCC)cc1` [Compound K6]: in the data set with KCNQ channels, the I/I0 is given as 1.24 ± 0.02 and the ΔV1/2 is given as −1.6 ± 3.0 mV. For `C#CCN(Cc1ccc(F)c(F)c1)c1ccc(NC(=O)OC)cc1` [Compound K19], in the data set on KCNQ channels, the I/I0 is recorded as 2.52 ± 0.23 and the ΔV1/2 is −14.9 ± 2.7 mV. The compound `C=C(/C=C/CN)CN(Cc1ccc(F)cc1)c1ccc(NC(=O)OCC)c(NC(=O)OCC)c1` [Compound K39, ethyl 2-(ethoxycarbonyl-imino)-4-[N-parafluorobenzyl-N-1-(6-amino-2-alkenyl-3-hexylene)-imino]-aniline formate] showed an I/I0 with KCNQ channels of 1.03 ± 0.11. As for `C=CCOC(=O)Nc1ccc(N(Cc2ccc(F)cc2)CC(C)C)cc1NC(=O)OCC=C` [Compound K27], in the data set with KCNQ channels, the I/I0 came to 1.52 ± 0.17. In the case of `C#CCN(Cc1ccc(F)cc1)c1ccc(NC(=O)OCC(C)C)cc1` [Compound K5], in the data set on KCNQ channels, the I/I0 was determined as 1.23 ± 0.08 and the ΔV1/2 is listed as −14.3 ± 3.3 mV. Taken in the same sequence, the figures for `C#CCN(Cc1ccc(F)cc1)c1ccc(NC(=O)OCc2ccccc2)cc1` [Compound K4] were 2.09 ± 0.25 and −11.5 ± 2.0 mV.
